Data: patent US20170210723A1, “MOLECULES HAVING PESTICIDAL UTILITY, AND INTERMEDIATES, COMPOSITIONS, AND PROCESSES, RELATED THERETO” (priority 2016, published 2017)

Legend:
Assay type in all cases: in vivo
[1] = system: Yellow Fever Mosquito (Aedes aegypti); experiment: Bioassays on Yellow Fever Mosquito larvae, 96-well plate; details: from 4000 ppm DMSO master plate, about 1 day-old larvae, 3 days
How it was run: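 Aedes aegypti larvae about 1 day old, in water with liver powder, exposed in 96-well plates to compounds from a 4000 ppm DMSO master solution diluted in 90:10 water:acetone. Plates covered and held at room temperature for 3 days, then each well scored for mortality; 6 replicate plates.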

[2] = system: Beet Armyworm (Spodoptera exigua); experiment: Bioassays on BAW, 128-well diet tray assay; details: Spodoptera exigua, 168 h; 50 μg/cm^2 on artificial diet, second instar larvae, five to seven days; read-out: BAW % Control (or Mortality) rating
[3] = system: Cabbage Looper (Trichoplusia ni); experiment: Bioassays on CL, 128-well diet tray assay; details: Trichoplusia ni, 168 h; 50 μg/cm^2 on artificial diet, second instar larvae, five to seven days; read-out: CL % Control (or Mortality) rating
How it was run: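 Test molecule at 50 μg/cm^2 applied to the artificial diet surface (acetone-water) and dried; one to five second-instar T. ni larvae per well, eight wells per treatment, held at 25° C., 14:10 light-dark for five to seven days. Percent mortality averaged over wells.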

SMILES | YFM % Control (or Mortality) rating [1] | mortality at 50 µg/cm2 [2] [%] | mortality at 50 µg/cm2 [3] [%]
Cc1cc(/C=C/C(c2cc(Cl)c(Cl)c(Cl)c2)C(F)(F)F)cc(F)c1C(=O)N[C@H](C)CSCC(F)(F)F (stereo partly drawn) [F97, 2-Fluoro-6-methyl-4-((E)-4,4,4-trifluoro-3-(3,4,5-trichlorophenyl)but-1-en-1-yl)-N—((R)-1-((2,2,2-trifluoroethyl)thio)propan-2-yl)benzamide] | A (80-100) | 50 to 100 | 50 to 100
Cc1cc(/C=C/C(c2cc(Cl)c(Cl)c(Cl)c2)C(F)(F)F)cc(F)c1C(=O)N[C@H](C)CS(=O)(=O)CC(F)(F)F (stereo partly drawn) [F98, 2-Fluoro-6-methyl-4-((E)-4,4,4-trifluoro-3-(3,4,5-trichlorophenyl)but-1-en-1-yl)-N—((R)-1-((2,2,2-trifluoroethyl)sulfonyl)propan-2-yl)benzamide] | A (80-100) | 50 to 100 | 50 to 100
Cc1cc(/C=C/C(c2cc(Cl)c(Cl)c(Cl)c2)C(F)(F)F)cc(F)c1C(=O)N[C@H](C)C[S+]([O-])CC(F)(F)F (stereo partly drawn) [F99, 2-Fluoro-6-methyl-4-((E)-4,4,4-trifluoro-3-(3,4,5-trichlorophenyl)but-1-en-1-yl)-N-((2R)-1-((2,2,2-trifluoroethyl)sulfinyl)propan-2-yl)benzamide] | A (80-100) | 50 to 100 | 50 to 100
C[C@H](CSCC(F)(F)F)NC(=O)c1ccc(/C=C/C(c2cc(Cl)c(Cl)c(C=O)c2)C(F)(F)F)cc1C(F)(F)F (stereo partly drawn) [F100, 4-((E)-3-(3,4-Dichloro-5-formylphenyl)-4,4,4-trifluorobut-1-en-1-yl)-N—((R)-1-((2,2,2-trifluoroethyl)thio)propan-2-yl)-2-(trifluoromethyl)benzamide] | B (More than 0-Less than 80) | 50 to 100 | 50 to 100
C=CCSC[C@@H](C)NC(=O)c1ccc(/C=C/C(c2cc(Cl)c(Cl)c(Cl)c2)C(F)(F)F)cc1C(F)(F)F (stereo partly drawn) [F101, N—((R)-1-(Allylthio)propan-2-yl)-4-((E)-4,4,4-trifluoro-3-(3,4,5-trichlorophenyl)but-1-en-1-yl)-2-(trifluoromethyl)benzamide] | A (80-100) | 50 to 100 | 50 to 100
C=CCS(=O)(=O)C[C@@H](C)NC(=O)c1ccc(/C=C/C(c2cc(Cl)c(Cl)c(Cl)c2)C(F)(F)F)cc1C(F)(F)F (stereo partly drawn) [F102, N—((R)-1-(Allylsulfonyl)propan-2-yl)-4-((E)-4,4,4-trifluoro-3-(3,4,5-trichlorophenyl)but-1-en-1-yl)-2-(trifluoromethyl)benzamide] | A (80-100) | 50 to 100 | 50 to 100
C=CC[S+]([O-])C[C@@H](C)NC(=O)c1ccc(/C=C/C(c2cc(Cl)c(Cl)c(Cl)c2)C(F)(F)F)cc1C(F)(F)F (stereo partly drawn) [F103, N-((2R)-1-(Allylsulfinyl)propan-2-yl)-4-((E)-4,4,4-trifluoro-3-(3,4,5-trichlorophenyl)but-1-en-1-yl)-2-(trifluoromethyl)benzamide] | A (80-100) | 50 to 100 | 50 to 100
C[C@H](CSCC(F)(F)F)NC(=O)c1ccc(/C=C/C(c2cc(Cl)cc(Cl)c2)C(F)(F)F)cc1Cl (stereo partly drawn) [F104, 2-Chloro-4-((E)-3-(3,5-dichlorophenyl)-4,4,4-trifluorobut-1-en-1-yl)-N—((R)-1-((2,2,2-trifluoroethyl)thio)propan-2-yl)benzamide] | A (80-100) | 50 to 100 | 50 to 100
C[C@H](CC[S+]([O-])CC(F)(F)F)NC(=O)c1ccc(/C=C/C(c2cc(Cl)c(Cl)c(Cl)c2)C(F)(F)F)cc1C(F)(F)F (stereo partly drawn) [F105, 4-((E)-4,4,4-Trifluoro-3-(3,4,5-trichlorophenyl)but-1-en-1-yl)-N-((2R)-4-((2,2,2-trifluoroethyl)sulfinyl)butan-2-yl)-2-(trifluoromethyl)benzamide] | A (80-100) | 50 to 100 | 50 to 100
C[C@H](CCS(=O)(=O)CC(F)(F)F)NC(=O)c1ccc(/C=C/C(c2cc(Cl)c(Cl)c(Cl)c2)C(F)(F)F)cc1C(F)(F)F (stereo partly drawn) [F106, 4-((E)-4,4,4-Trifluoro-3-(3,4,5-trichlorophenyl)but-1-en-1-yl)-N—((R)-4-((2,2,2-trifluoroethyl)sulfonyl)butan-2-yl)-2-(trifluoromethyl)benzamide] | A (80-100) | 50 to 100 | 50 to 100
C[C@H](CSCC(F)(F)F)NC(=O)c1ccc(/C=C/C(c2cc(Cl)c(C#N)c(Cl)c2)C(F)(F)F)cc1C(F)(F)F (stereo partly drawn) [F109, 4-((E)-3-(3,5-Dichloro-4-cyanophenyl)-4,4,4-trifluorobut-1-en-1-yl)-N—((R)-1-((2,2,2-trifluoroethyl)thio)propan-2-yl)-2-(trifluoromethyl)benzamide] | A (80-100) | 50 to 100 | 50 to 100
O=C(NC1(CSCC(F)(F)F)CC1)c1ccc(/C=C/C(c2cc(Cl)c(Cl)c(Cl)c2)C(F)(F)F)cc1C(F)(F)F (stereo not drawn) [F110, (E)-4-(4,4,4-Trifluoro-3-(3,4,5-trichlorophenyl)but-1-en-1-yl)-N-(1-(((2,2,2-trifluoroethyl)thio)methyl)cyclopropyl)-2-(trifluoromethyl)benzamide] | A (80-100) | 50 to 100 | 50 to 100
O=C(NC1(CS(=O)(=O)CC(F)(F)F)CC1)c1ccc(/C=C/C(c2cc(Cl)c(Cl)c(Cl)c2)C(F)(F)F)cc1C(F)(F)F (stereo not drawn) [F112, (E)-4-(4,4,4-Trifluoro-3-(3,4,5-trichlorophenyl)but-1-en-1-yl)-N-(1-(((2,2,2-trifluoroethyl)sulfonyl)methyl)cyclopropyl)-2-(trifluoromethyl)benzamide] | A (80-100) | 50 to 100 | 50 to 100
CCSC(CNC(=O)c1ccc(/C=C/C(c2cc(Cl)c(Cl)c(Cl)c2)C(F)(F)F)cc1C(F)(F)F)SCC (stereo not drawn) [F113, (E)-N-(2,2-Bis(ethylthio)ethyl)-4-(4,4,4-trifluoro-3-(3,4,5-trichlorophenyl)but-1-en-1-yl)-2-(trifluoromethyl)benzamide] | A (80-100) | 50 to 100 | 50 to 100
C[C@H](CS(=O)(=O)CC(F)(F)F)NC(=O)c1ccc(/C=C/C(c2cc(Cl)c(Cl)c(Cl)c2)C(F)F)cc1C(F)(F)F (stereo partly drawn) [F118, 4-((E)-4,4-Difluoro-3-(3,4,5-trichlorophenyl)but-1-en-1-yl)-N—((R)-1-((2,2,2-trifluoroethyl)sulfonyl)propan-2-yl)-2-(trifluoromethyl)benzamide] | A (80-100) | 50 to 100 | 50 to 100
NC(=O)[C@H](CSCC(F)(F)F)NC(=O)c1ccc(/C=C/C(c2cc(Cl)c(Cl)c(Cl)c2)C(F)(F)F)cc1C(F)(F)F (stereo partly drawn) [F125, N—((R)-1-Amino-1-oxo-3-((2,2,2-trifluoroethyl)thio)propan-2-yl)-4-((E)-4,4,4-trifluoro-3-(3,4,5-trichlorophenyl)but-1-en-1-yl)-2-(trifluoromethyl)benzamide] | A (80-100) | 50 to 100 | 50 to 100
CC(F)(F)C(/C=C/c1ccc(C(=O)NCCS(=O)(=O)CC(F)(F)F)c(C(F)(F)F)c1)c1cc(Cl)c(Cl)c(Cl)c1 (stereo not drawn) [F126, (E)-4-(4,4-Difluoro-3-(3,4,5-trichlorophenyl)pent-1-en-1-yl)-N-(2-((2,2,2-trifluoroethyl)sulfonyl)ethyl)-2-(trifluoromethyl)benzamide] | B (More than 0-Less than 80) | 50 to 100 | 50 to 100
C[C@H](CS(=O)(=O)CC(F)(F)F)NC(=O)c1ccc(/C=C/C(c2cc(Cl)c(F)c(Cl)c2)C(C)(F)F)cc1C(F)(F)F (stereo partly drawn) [F131, 4-((E)-3-(3,5-Dichloro-4-fluorophenyl)-4,4-difluoropent-1-en-1-yl)-N—((R)-1-((2,2,2-trifluoroethyl)sulfonyl)propan-2-yl)-2-(trifluoromethyl)benzamide] | D (No activity noticed in this bioassay) | 50 to 100 | 50 to 100
C[C@H](CS(=O)(=O)CC(F)(F)F)NC(=O)c1ccc(/C=C/C(c2cc(Cl)cc(Cl)c2)C(C)(F)F)cc1Cl (stereo partly drawn) [F132, 2-Chloro-4-((E)-3-(3,5-dichlorophenyl)-4,4-difluoropent-1-en-1-yl)-N—((R)-1-((2,2,2-trifluoroethyl)sulfonyl)propan-2-yl)benzamide] | B (More than 0-Less than 80) | 50 to 100 | 50 to 100
C[C@H](CS(=O)(=O)CC(F)(F)F)NC(=O)c1ccc(/C=C/C(c2cc(Cl)cc(Cl)c2)C(C)(F)F)cc1C(F)(F)F (stereo partly drawn) [F134, 4-((E)-3-(3,5-Dichlorophenyl)-4,4-difluoropent-1-en-1-yl)-N—((R)-1-((2,2,2-trifluoroethyl)sulfonyl)propan-2-yl)-2-(trifluoromethyl)benzamide] | A (80-100) | 50 to 100 | 50 to 100
